Where “and” joins values, the source holds several entries; their conditions need not be identical. Equal entries are not always repeated.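 Cells were grown in 96-well plates and exposed to each compound for 48 hours at five concentrations; endpoints were interpolated linearly between bracketing concentrations, or set to the highest concentration if not reached. Here, GI50 denotes the concentration required for 50% inhibition of growth. Definition used: TGI = concentration required for complete inhibition of growth.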
Columns and labels:
Assay in all cases: inhibition of tumour cell growth, NCI panel, 48 h
ACHN renal = test system: ACHN renal
COLO 205 colon = test system: COLO 205 colon
DU-145 prostate = test system: DU-145 prostate
HL-60(TB) leukemia = test system: HL-60(TB) leukemia
HT29 colon = test system: HT29 colon
MALME-3M melanoma = test system: MALME-3M melanoma
MOLT-4 leukemia = test system: MOLT-4 leukemia
OVCAR-8 ovarian = test system: OVCAR-8 ovarian
SK-MEL-28 melanoma = test system: SK-MEL-28 melanoma
HCT-116 colon = test system: HCT-116 colon

| SMILES | GI50 (ACHN renal) | TGI (ACHN renal) | GI50 (COLO 205 colon) | TGI (COLO 205 colon) | GI50 (DU-145 prostate) | TGI (DU-145 prostate) | GI50 (HL-60(TB) leukemia) | TGI (HL-60(TB) leukemia) | GI50 (HT29 colon) | TGI (HT29 colon) | GI50 (MALME-3M melanoma) | TGI (MALME-3M melanoma) | GI50 (MOLT-4 leukemia) | TGI (MOLT-4 leukemia) | GI50 (OVCAR-8 ovarian) | TGI (OVCAR-8 ovarian) | GI50 (SK-MEL-28 melanoma) | TGI (SK-MEL-28 melanoma) | TGI (HCT-116 colon) | GI50 (HCT-116 colon) |
| --- | --- | --- | --- | --- | --- | --- | --- | --- | --- | --- | --- | --- | --- | --- | --- | --- | --- | --- | --- | --- |
| CO[C@@H]1CC[C@]2(C)OC[C@H](C)[C@@H]3C[C@@H](C)[C@@H](OC(C)=O)[C@@H]4[C@H]3[C@@H]2O[C@H]4C[C@@]1(C)O | > 100 µM | > 100 µM | > 100 µM | > 100 µM | > 100 µM | > 100 µM | > 100 µM | > 100 µM | > 100 µM | > 100 µM | 63.9 µM | > 100 µM | > 100 µM | > 100 µM | > 100 µM | > 100 µM | > 100 µM | > 100 µM |  |  |
| COC(=O)c1c(C)cc(OC)c(C/C=C(\C)CCCc2coc(C=C(C)C)c2)c1OC |  | > 100 µM |  | > 100 µM |  | > 100 µM |  | > 100 µM |  | > 100 µM |  |  |  | > 100 µM |  | > 100 µM |  | > 100 µM | > 100 µM |  |
| CCn1cc(-c2ccnc3[nH]c(-c4cccc(CN(C)C)c4)cc23)c(-c2ccc(NC(=O)N(C)C)cc2)n1 | 1.73 µM and 2.45 µM | 10.2 µM and > 10 µM | < 0.01 µM and 0.0272 µM | 3.81 µM and 2.99 µM | 3.63 µM and 1.97 µM | 37.8 µM and > 10 µM | 1.46 µM and 0.863 µM | 8.3 µM and > 10 µM | 1.89 µM and 1.4 µM | 22.6 µM and > 10 µM | 12 µM and > 10 µM | 29.3 µM and > 10 µM | 2.15 µM and 1.74 µM | 39.3 µM and > 10 µM | 3.33 µM and 3.61 µM | 23 µM and > 10 µM | 3.45 µM and > 10 µM | 17.1 µM and > 10 µM | 17.7 µM and > 10 µM | 0.322 µM and 0.455 µM |
| C[C@H](CCOc1cccc(CC(=O)O)c1)N(Cc1cccc(C(F)(F)F)c1Cl)CC(c1ccccc1)c1ccccc1 | 5.11 µM | 17 µM |  |  | 7.89 µM | 20.4 µM | 5.58 µM | 24.6 µM | 4.43 µM | 22.9 µM | 7.39 µM | 21.7 µM | 4.95 µM | 23.1 µM | 5.83 µM | 25.6 µM | 7.3 µM | 20.1 µM | 13.6 µM | 3.68 µM |
| CN(C)CCN1CCC(Cc2ccccc2)CC1 | > 80 µM | > 80 µM | > 80 µM | > 80 µM | > 80 µM | > 80 µM | 26.8 µM | > 80 µM | > 80 µM | > 80 µM | > 80 µM | > 80 µM | > 80 µM | > 80 µM | > 80 µM | > 80 µM | > 80 µM | > 80 µM | > 80 µM | > 80 µM |
| COc1ccc(/C=C\c2cc(OC)c(OC)c(OC)c2)cc1OCC(=O)O |  | > 100 µM |  | > 100 µM |  | 47.2 µM |  | 23.8 µM |  | > 100 µM |  | > 100 µM |  | > 100 µM |  | > 58.2 µM |  | > 100 µM | 31.5 µM |  |
| NC(=O)c1cc(I)ccc1NC(=O)/C=C/c1ccccc1 | 3.15 µM | > 47.1 µM | 0.318 µM | 1.24 µM | 0.352 µM | 2.97 µM | 0.13 µM | 0.912 µM | 0.374 µM | > 31.8 µM | 2.1 µM | > 100 µM | 0.539 µM |  | 1.18 µM | 27.8 µM | 1.17 µM | > 86.8 µM | > 40.3 µM | 0.475 µM |
| CCCCCCCCSC1=C(Cl)C(=O)C(OC)=C(OC)C1=O |  | 23 µM |  | 38 µM |  | 40.5 µM |  | 16.8 µM |  | 34.8 µM |  | 21.8 µM |  |  |  | 30.9 µM |  |  | 19.8 µM |  |
| O=C(O)c1ccc(CNCc2ccccc2)cc1 |  | > 100 µM |  | > 100 µM |  | > 100 µM |  | > 100 µM |  | > 100 µM |  | > 100 µM |  | > 100 µM |  | > 100 µM |  | > 100 µM | > 100 µM |  |
| O=c1[nH]c(O)c(C=Nc2ccc(-c3nc4ccccc4o3)cc2)c(=O)[nH]1 | > 100 µM | > 100 µM | 23.2 µM | > 100 µM | > 100 µM | > 100 µM | 81.9 µM | > 100 µM |  |  |  |  | > 100 µM | > 100 µM | 25.8 µM | > 100 µM | 16.6 µM | 47 µM | > 100 µM | 93.6 µM |
| C=CC12CCN(CC1)C(C(O)c1ccnc3ccc(OC)cc13)C2 (stereo not drawn) | > 100 µM | > 100 µM | 94.8 µM | > 100 µM | > 100 µM | > 100 µM | > 100 µM | > 100 µM | 61.9 µM | > 100 µM | 86.6 µM | > 100 µM | > 100 µM | > 100 µM | > 100 µM | > 100 µM | 79.8 µM | > 100 µM | > 100 µM | > 100 µM |
| NNc1ncnc2nc[nH]c12 | 4.78 µM | > 94 µM | 2.56 µM | 18.7 µM | 3.29 µM | 67.8 µM | 3.53 µM | 21.5 µM | 4.36 µM | > 100 µM | 28.6 µM | > 100 µM | 5.31 µM | > 60.1 µM | 5.09 µM | > 100 µM | 34.6 µM | > 100 µM | 15.9 µM | 2.25 µM |
| O=C(Nc1nc(-c2c[nH]c3ccccc23)cs1)c1n[nH]c(=O)c2ccccc12 | 8.98 µM | > 69.1 µM | 2.47 µM | > 60.1 µM | 3.33 µM | > 31 µM | 0.777 µM | > 100 µM | 1.19 µM | > 100 µM | 18.7 µM | 80 µM | 0.792 µM | > 35.4 µM | 2.26 µM | > 67.6 µM | 12.4 µM | 49.2 µM | > 44.5 µM | 0.368 µM |
| COC(=O)C1=CN(CC2=CC(=O)C(C)=CC2=O)C=C(C(=O)OC)C1c1ccccc1OC | 14.8 µM | 30.6 µM | 18.9 µM | 38.2 µM | 16.8 µM | 31.3 µM | 4.74 µM | 18.5 µM | 40.9 µM | > 100 µM | 14 µM | 33.3 µM | 5.61 µM | 14.2 µM | 17.6 µM | 38.9 µM | 28 µM | > 57.5 µM | 66 µM | 22.8 µM |

From PubChem BioAssay (NCI)
